Experimental data published in the supplement of paper PMC10307832.

Columns and labels:
Assay in all cases: relative viability (nuclei count vs DMSO), 5 days (fraction); higher = more cells survive
KN-93 + Dasatinib = compound: CN(C/C=C/C1=CC=C(C=C1)Cl)CC2=CC=CC=C2N(CCO)S(=O)(=O)C3=CC=C(C=C3)OC [KN-93] + Cc1nc(Nc2ncc(C(=O)Nc3c(C)cccc3Cl)s2)cc(N2CCN(CCO)CC2)n1 [Dasatinib] (partner 0.075 µM)
Method in brief: (§1)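 Lung cancer cell lines, seeded in 1536-well plates, were treated the following day by pin tool with a single drug or with five library-drug doses (not always all listed) in √10 steps on top of a fixed anchor-drug dose. Cells were fixed and nuclei stained in one step after 5 days, and nuclei were counted. Relative viability is the nuclei count for treated wells divided by that for vehicle wells, reported as medians of duplicate plates.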

KN-93 + Crizotinib = compound: CN(C/C=C/C1=CC=C(C=C1)Cl)CC2=CC=CC=C2N(CCO)S(=O)(=O)C3=CC=C(C=C3)OC [KN-93] + C[C@@H](Oc1cc(-c2cnn(C3CCNCC3)c2)cnc1N)c1c(Cl)ccc(F)c1Cl [Crizotinib] (partner 1 µM)
Method in brief: as §1

KN-93 + Alpelisib = compound: CN(C/C=C/C1=CC=C(C=C1)Cl)CC2=CC=CC=C2N(CCO)S(=O)(=O)C3=CC=C(C=C3)OC [KN-93] + Cc1nc(NC(=O)N2CCC[C@H]2C(N)=O)sc1-c1ccnc(C(C)(C)C(F)(F)F)c1 [Alpelisib] (partner 2 µM)
Method in brief: as §1

KN-93 + Olaparib = compound: CN(C/C=C/C1=CC=C(C=C1)Cl)CC2=CC=CC=C2N(CCO)S(=O)(=O)C3=CC=C(C=C3)OC [KN-93] + O=C(c1cc(Cc2n[nH]c(=O)c3ccccc23)ccc1F)N1CCN(C(=O)C2CC2)CC1 [Olaparib] (partner 8 µM)
Method in brief: as §1

KN-93 = compound: CN(C/C=C/C1=CC=C(C=C1)Cl)CC2=CC=CC=C2N(CCO)S(=O)(=O)C3=CC=C(C=C3)OC [KN-93]
Method in brief: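 After an overnight hold at 37 °C, lung cancer cell lines in 1536-well plates were pinned with five library-drug doses (not always all listed), each √10 from the next, on vehicle-anchored plates. The cells stayed 5 days without fresh medium, then a one-step fix, permeabilisation and Hoechst stain preceded 4× imaging and MetaXpress nuclear counts. A plate passed only with control CV under 25% and at least one doubling. Viability is the median, over plates, of treated-well nuclei relative to vehicle-well nuclei.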

Cell Line	relative viability (KN-93 + Dasatinib; first compound 0.08 µM)	relative viability (KN-93 + Dasatinib; first compound 0.253 µM)	relative viability (KN-93 + Dasatinib; first compound 2.53 µM)	relative viability (KN-93 + Dasatinib; first compound 8 µM)	relative viability (KN-93 + Crizotinib; first compound 0.08 µM)	relative viability (KN-93 + Crizotinib; first compound 0.253 µM)	relative viability (KN-93 + Crizotinib; first compound 2.53 µM)	relative viability (KN-93 + Crizotinib; first compound 8 µM)	relative viability (KN-93 + Alpelisib; first compound 0.08 µM)	relative viability (KN-93 + Alpelisib; first compound 0.253 µM)	relative viability (KN-93 + Alpelisib; first compound 2.53 µM)	relative viability (KN-93 + Alpelisib; first compound 8 µM)	relative viability (KN-93 + Olaparib; first compound 0.08 µM)	relative viability (KN-93 + Olaparib; first compound 0.253 µM)	relative viability (KN-93 + Olaparib; first compound 2.53 µM)	relative viability (KN-93 + Olaparib; first compound 8 µM)	relative viability (KN-93; 0.08 µM)	relative viability (KN-93; 0.253 µM)	relative viability (KN-93; 2.53 µM)	relative viability (KN-93; 8 µM)
HCC-78	0.336	0.459	0.373	0.344	0.336	0.312	0.37	0.312	0.385	0.276	0.393	0.212	0.725	0.976	0.807	0.726	0.941	0.828	1.04	0.744
HCC-366	0.513	0.562	0.737	0.223	–	0.609	0.68	0.129	–	0.394	0.507	0.172	0.298	0.318	0.422	0.2	0.835	1.1	1.11	0.863
HCC-827	0.279	0.302	0.233	0.275	0.993	0.996	0.908	0.778	0.959	0.985	0.962	0.755	0.745	0.556	0.704	0.608	1.08	1.05	1.05	0.851
HOP-62	0.52	0.669	0.675	0.501	0.936	1.09	1.15	0.952	1.1	1.22	1.22	0.866	0.325	0.401	0.0964	0.545	1.06	1.07	1.17	0.733
IA-LM	–	–	–	–	0.745	0.822	0.975	0.431	0.765	0.746	0.773	0.778	1.05	0.656	0.933	0.579	0.896	0.948	1.47	0.875
LC-2-ad	0.74	0.571	0.523	0.329	0.453	0.459	0.474	0.43	0.815	0.945	0.84	0.53	0.687	0.739	0.733	0.62	0.965	1.16	0.995	0.725
LCLC-97TM1	0.753	0.955	0.814	0.63	0.321	–	0.379	0.255	0.282	–	0.217	0.206	0.308	0.368	0.449	0.242	0.975	1.29	1.09	0.601
LCLC-103H	0.438	0.464	0.438	0.26	1.06	1.13	1.08	0.776	1	0.994	0.92	0.861	0.701	0.859	0.758	0.558	0.869	1.14	0.945	0.812
